Values after ≈ are worked out from the molar mass of the structure shown.

In assay [1] the target is T1, Scytalone dehydratase (Magnaporthe oryzae (strain 70-15 / FGSC 8958) (Rice blast fungus)(Pyricularia oryzae), UniProt P56221).
T1 sequence (P56221 whole entry): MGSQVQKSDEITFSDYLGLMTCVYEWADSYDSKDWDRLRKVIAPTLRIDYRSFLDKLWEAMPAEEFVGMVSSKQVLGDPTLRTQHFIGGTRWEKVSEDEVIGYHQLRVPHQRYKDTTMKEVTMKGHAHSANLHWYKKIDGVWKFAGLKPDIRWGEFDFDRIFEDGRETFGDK

The subject of the next assay is rice. Kind of assay: Concentration that affords 90% control of blast disease on rice plants by multiple rate foliar rice blast assay. Type of assay: functional.
For assay [2], the target named is T1, Scytalone dehydratase. This is another data set of the same source.

In turn, `C[C@H](COc1ccccc1F)NC(=O)[C@@H](C#N)C(C)(C)C` gave a Ki at Scytalone dehydratase [1] of 0.08 nM. The molecule also came in with an ED90 with rice of 25 µg/mL (≈ 85.5 µM). Also, at Scytalone dehydratase [2], the “Adjusted Ki” value is listed as 0.08 nM.

For the molecule `C[C@H](COc1ccccc1)NC(=O)[C@@H](C#N)C(C)(C)C` (stereo in doubt; 6f) [listing 1 of 2 here], on Scytalone dehydratase [1], the affinity corresponds to a Ki of 0.58 nM. Besides, the “Adjusted Ki” value at Scytalone dehydratase [2] was 0.58 nM.

As to `CC(COc1cccc(F)c1)NC(=O)[C@@H](C#N)C(C)(C)C` (stereo not given in full), at Scytalone dehydratase [1], affinity was put at a Ki of 0.46 nM. In the assay with rice, this molecule had an ED90 of 25 µg/mL (≈ 85.5 µM). Besides, the “Adjusted Ki” value on Scytalone dehydratase [2] is recorded as 0.23 nM.

On Scytalone dehydratase [1], `C[C@H](COc1cccc(F)c1F)NC(=O)[C@@H](C#N)C(C)(C)C` came in with a Ki of 0.95 nM. This molecule registered an ED90 with rice of 25 µg/mL (≈ 80.6 µM). Further, on Scytalone dehydratase [2], the “Adjusted Ki” value amounted to 0.95 nM.

Turning to `C[C@@H](COc1cc(F)ccc1F)NC(=O)[C@H](C#N)C(C)(C)C`, at Scytalone dehydratase [1], the affinity, expressed as Ki, was 97 nM. In the assay with rice, the ED90 was > 200 µg/mL. Further, the “Adjusted Ki” value at Scytalone dehydratase [2] is on record as 97 nM.

In the case of `C[C@H](COc1cc(F)ccc1F)NC(=O)[C@H](C#N)C(C)(C)C`, the Ki on Scytalone dehydratase [1] was 0.73 nM. In the assay on rice, this molecule returned an ED90 of 6.2 µg/mL (≈ 20 µM). Moreover, on Scytalone dehydratase [2], the “Adjusted Ki” value stood at 0.73 nM.

Turning to `CC(C)(C)C(C#N)C(=O)NCCCc1ccccc1` (stereo not given), at Scytalone dehydratase [1], affinity was put at a Ki of 13.6 nM. In addition, the ED90 in the assay with rice was 200 µg/mL (≈ 774 µM). The “Adjusted Ki” value at Scytalone dehydratase [2] was 6.8 nM.

Molecule `C[C@H](COc1ccccc1)NC(=O)[C@@H](C#N)C(C)(C)C` (stereo in doubt; 6e) [listing 1 of 2 here] displayed a Ki on Scytalone dehydratase [1] of 1.3 nM. Further, on Scytalone dehydratase [2], the “Adjusted Ki” value is given as 0.66 nM.

Molecule `C[C@H](COc1ccccc1)NC(=O)c1cc(F)ccc1O` registered a Ki at Scytalone dehydratase [1] of 0.44 nM. This counts as sub-nanomolar.

`CC[C@]1(C(=O)NC(C)COc2ccccc2)C(C)C1(Cl)Cl` (stereo not given in full) had a Ki on Scytalone dehydratase [1] of 0.38 nM. For the same molecule, the ED90 in the assay on rice came out at 50 µg/mL (≈ 151 µM). Further, on Scytalone dehydratase [2], the “Adjusted Ki” value came out at 0.094 nM.

At Scytalone dehydratase [1], `C[C@H](COc1ccccc1)NC(=O)[C@H](C#N)C(C)(C)C` gave a Ki of 66 nM. For the same molecule, the ED90 in the assay on rice is > 200 µg/mL. In addition, the “Adjusted Ki” value on Scytalone dehydratase [2] is 33 nM.

On to `CC(CCc1ccccc1)NC(=O)C(C#N)C(C)(C)C` (stereo not given), for which the affinity at Scytalone dehydratase [1], expressed as Ki, was 7.2 nM. The ED90 with rice was > 200 µg/mL. For the same molecule, the “Adjusted Ki” value on Scytalone dehydratase [2] stood at 1.8 nM.

`C[C@H](COc1ccc(F)cc1)NC(=O)C(C#N)C(C)(C)C` (stereo not given in full) gave a Ki at Scytalone dehydratase [1] of 1.7 nM. The molecule further displayed an ED90 in the assay on rice of 100 µg/mL (≈ 342 µM). The “Adjusted Ki” value at Scytalone dehydratase [2] was found to be 0.83 nM.

On to `C[C@H](COc1ccccc1)NC(=O)[C@@H](C#N)C(C)(C)C` (stereo in doubt; 6e) [listing 2 of 2 here], for which the ED90 in the assay with rice is 100 µg/mL (≈ 364 µM).

At Scytalone dehydratase [1], `C[C@H](COc1cc(F)ccc1F)NC(=O)C(C#N)C(C)(C)C` (stereo not given in full) showed a Ki of 0.042 nM. Further, the ED90 in the assay with rice came out at 6.2 µg/mL (≈ 20 µM). For the same molecule, the “Adjusted Ki” value on Scytalone dehydratase [2] is recorded as 0.021 nM.

Take `CC[C@]1(C(=O)NC(C)CCc2ccccc2)C(C)C1(Cl)Cl` (stereo not given in full): on Scytalone dehydratase [1], the affinity corresponds to a Ki of 0.83 nM. In addition, the ED90 in the assay on rice was found to be 30 µg/mL (≈ 91.4 µM). In addition, the “Adjusted Ki” value on Scytalone dehydratase [2] was 0.21 nM.

For the molecule `C[C@H](COc1cc(F)ccc1F)NC(=O)[C@@H](C#N)C(C)(C)C`, the Ki on Scytalone dehydratase [1] worked out at 0.02 nM. Also, in the assay with rice, the ED90 amounted to 0.8 µg/mL (≈ 2.58 µM). Also, on Scytalone dehydratase [2], the “Adjusted Ki” value is given as 0.02 nM.

In turn, `C[C@H](COc1cccc(F)c1)NC(=O)[C@@H](C#N)C(C)(C)C` came in with a Ki at Scytalone dehydratase [1] of 0.24 nM. In addition, the ED90 with rice amounted to 25 µg/mL (≈ 85.5 µM). For the same molecule, on Scytalone dehydratase [2], the “Adjusted Ki” value is recorded as 0.24 nM.

`CC[C@]1(C(=O)N[C@H](C)COc2cccc(F)c2)C(C)C1(Cl)Cl` (stereo not given in full) displayed a Ki on Scytalone dehydratase [1] of 0.11 nM. Moreover, in the assay with rice, the ED90 worked out at 30 µg/mL (≈ 86.1 µM). Further, the “Adjusted Ki” value at Scytalone dehydratase [2] was 0.057 nM.

In turn, `CC[C@]1(C(=O)N[C@H](C)COc2cc(F)ccc2F)C(C)C1(Cl)Cl` (stereo not given in full) yielded a Ki on Scytalone dehydratase [1] of 0.085 nM. Moreover, the ED90 with rice worked out at 6 µg/mL (≈ 16.4 µM). In addition, the “Adjusted Ki” value on Scytalone dehydratase [2] is listed as 0.042 nM.

In the case of `C[C@H](COc1ccccc1)NC(=O)[C@@H](C#N)C(C)(C)C` (stereo in doubt; 6f) [listing 2 of 2 here], the ED90 with rice was 25 µg/mL (≈ 91.1 µM).

Take `CC[C@]1(C(=O)N[C@H](C)COc2ccccc2F)C(C)C1(Cl)Cl` (stereo not given in full): the affinity at Scytalone dehydratase [1] corresponds to a Ki of 0.37 nM. The molecule also registered an ED90 in the assay on rice of 50 µg/mL (≈ 144 µM). Further, the “Adjusted Ki” value on Scytalone dehydratase [2] was found to be 0.19 nM.

In turn, `CC(COc1ccccc1F)NC(=O)C(C#N)C(C)(C)C` (stereo not given) came in with a Ki on Scytalone dehydratase [1] of 0.24 nM. This molecule had an ED90 in the assay with rice of 50 µg/mL (≈ 171 µM). The “Adjusted Ki” value on Scytalone dehydratase [2] turned out to be 0.059 nM.

For `CC[C@]1(C(=O)N[C@H](C)COc2ccc(F)cc2)C(C)C1(Cl)Cl` (stereo not given in full), the affinity on Scytalone dehydratase [1] corresponds to a Ki of 0.22 nM. Also, the ED90 with rice came out at 30 µg/mL (≈ 86.1 µM). The “Adjusted Ki” value at Scytalone dehydratase [2] is 0.11 nM.

Take `CC[C@]1(C(=O)N[C@@H](C)COc2cc(F)ccc2F)C(C)C1(Cl)Cl` (stereo not given in full): on Scytalone dehydratase [1], the affinity, expressed as Ki, was 33 nM. Moreover, the ED90 in the assay with rice came out at 100 µg/mL (≈ 273 µM). The “Adjusted Ki” value on Scytalone dehydratase [2] is on record as 16 nM.

Turning to `CC(COc1ccccc1)NC(=O)C(C#N)C(C)(C)C` (stereo not given), the Ki at Scytalone dehydratase [1] amounted to 2.8 nM. For the same molecule, the ED90 with rice amounted to 200 µg/mL (≈ 729 µM). The “Adjusted Ki” value on Scytalone dehydratase [2] was 0.7 nM.

With `CC[C@]1(C(=O)N[C@H](C)COc2ccccc2)C(C)C1(Cl)Cl` (stereo not given in full), the Ki at Scytalone dehydratase [1] amounted to 0.17 nM. In addition, the ED90 with rice amounted to 30 µg/mL (≈ 90.8 µM). Moreover, the “Adjusted Ki” value on Scytalone dehydratase [2] is listed as 0.0835 nM.

On Scytalone dehydratase [1], `CC[C@]1(C(=O)N[C@H](C)COc2cccc(F)c2F)C(C)C1(Cl)Cl` (stereo not given in full) came in with a Ki of 2.2 nM. The same molecule had an ED90 in the assay on rice of 100 µg/mL (≈ 273 µM). In addition, the “Adjusted Ki” value at Scytalone dehydratase [2] was 2.2 nM.

Turning to `CC[C@]1(C(=O)NCCCc2ccccc2)C(C)C1(Cl)Cl` (stereo not given in full), at Scytalone dehydratase [1], the Ki stood at 1.9 nM. For the same molecule, the ED90 with rice is 30 µg/mL (≈ 95.5 µM). The “Adjusted Ki” value on Scytalone dehydratase [2] was found to be 0.96 nM.

With `CC[C@]1(C(=O)NCCOc2ccccc2)C(C)C1(Cl)Cl` (stereo not given in full), the Ki on Scytalone dehydratase [1] is 7.5 nM. Also, the ED90 in the assay with rice was 200 µg/mL (≈ 632 µM). Besides, the “Adjusted Ki” value on Scytalone dehydratase [2] came out at 3.7 nM.

Regarding `C[C@@H](COc1cc(F)ccc1F)NC(=O)[C@@H](C#N)C(C)(C)C`, on Scytalone dehydratase [1], the affinity, expressed as Ki, was 7.7 nM. Besides, in the assay with rice, the ED90 is > 200 µg/mL. On Scytalone dehydratase [2], the “Adjusted Ki” value is 7.7 nM.
